# In patent publication US20210199657A1, “I[…] AND USE THEREOF” (priority 2016, published 2021):
# How the values were obtained:
# [1] = tested on: antibodies contained in pools of serums from patients suffering from active tuberculosis; assay: ELISA screening of peptides on pools of serums from patients with active TB (ratio R); details: for ratio R: for 3 of the 4 serums tested
# Description: In order to determine which peptides are of interest, a ratio R is calculated, the ratio R being the normalized measurement value of the immune complex formation, relative to the respective background noises of the serums and components used to detect the immune complexes, to, or divided by, the normalized measurement value obtained from the sample derived from a healthy individual relative to the respective background noises of the serums and components used to detect the immune complexes.
# In order to determine the immunogenicity of the peptides, they are tested using the following ELISA test:
# The peptides are fixed on a Maxisorp (high binding) plate: Incubation overnight at 4° C., concentration of the protein in μg/ml from 20 to 50.
# The wells are rinsed with 300 μL of phosphate buffered saline (PBS).
# The “wells” are blocked for 2 hours at ambient temperature (19° C.-25° C.) with 200 μL of bovine serum albumin (BSA) 2% and 0.01% of Tween 20.
# The wells are rinsed with 200 μL of PBS.
# One deposits 100 μL of serums from patients suffering from active TA diluted at 1/100th in blocking solution and incubates for one hour at 37° C.
# Perform 3 washes (300 μL) PBS-Tween 20 (0.05%).
# One adds 100 μL of antibodies conjugated with peroxidase, diluted at 1/20,000 with blocking solution and incubates for 1 h at 37° C.
# One adds 100 μL of 3,3′,5,5′-tetramethylbenzidine (TMB) and incubates for 20 minutes in the dark.
# One deposits 50 μL of sulfuric acid at 1N.
# A spectrophotometer is used at 450 nm to read the quantity of TMB converted by the peroxidase (indicative of the formation of an immune complex between the peptides and the antibodies contained in the serum).
# [2] = tested on: negative pool (serum of individuals not suffering from tuberculosis); assay: ELISA of peptides on negative pool of samples; type: binding, human; details: 450 nm
Sequence,ratio R [1],ratio ([1]; for both pools of patients),Ratio Positive pool 1 ([1]; positive pool 1),Ratio Positive pool 2 ([1]; positive pool 2),OD Negative pool [2]
"CNNGDPICSDGNRWR (derived from Rv3452) [Peptide D7, Rv3452 191-205aa]",greater than 1.5,> 1.5,1.7,1.7,0.303
DADARVAVPRRDDL (DADARVAVPGRRDDL; derived from LipW) [Peptide W7],greater than 1.5,,,,
TAACPDAEWFARGR (TAACPDAEVVFARGR; derived from Rv2301) [Peptide Z1],greater than 1.5,,,,
